From article PMC9098178, “SAR of Novel 3-Arylisoquinolinones: meta-Substitution on the Aryl Ring Dramatically Enhances Antiproliferative Activity through Binding to Microtubules” (Journal of Medicinal Chemistry, 2022)

Tests used:
MCF-7 = assay: SRB antiproliferative assay, MCF-7; format: cell-based, human; conditions: Homo sapiens, MCF7, 96 h treatment, mean ± SEM, read-out: IC50 MCF-7 (prescreen)
Procedure: Initially, the human breast cancer cell line MCF-7 was used in a prescreen analysis of the anticancer activity of 3-arylisoquinolinones. The cells were treated with serial concentrations of compounds 2–8 for 96 h prior to the assessment of proliferation using the sulforhodamine B (SRB) assay. For each compound, the concentration required to inhibit cell growth by 50% compared to that of the untreated control cells (IC50) was determined (Table 1).
(§1) All cell lines used in the study were human-derived and purchased from ATCC (Manassas, USA). Breast adenocarcinoma MCF-7 and MDA-MB-231 cell lines were cultured in DMEM. Hepatocellular carcinoma HepG2 and SNU423 cell lines were grown in MEME combined with 1% (v/v) nonessential amino acids and RPMI supplemented with 2 mM glutamine, respectively. Lung adenocarcinoma A549 and colorectal carcinoma HCT116 cells were grown in RPMI (+2 mM glutamine). All previous media were further supplemented with 10% heat-inactivated fetal bovine serum. The immortalized, normal liver THLE-3 cells were grown in BEGM (Lonza, Cat# CC-3170) onto precoated vessels according to ATCC’s instructions. Human umbilical vein endothelial cells (HUVECs) were cultured in EGM-2 (Lonza, Cat# CC-3162). All of the cells were maintained at 37 °C and 5% CO2 in a humidified incubator.
(§2) Screening of the antiproliferative activity of 3-arylisoquinolinones was performed using the SRB assay as previously described.[56] Exponentially growing HepG2, SNU423, MDA-MB-231, MCF-7, A549, HCT116, THLE-3, and HUVECs were seeded in 96-well plates at densities of 3000, 2000, 1500, 2500, 1000, 1000, 4000, and 4000 cells/well, respectively. These densities were experimentally selected so that the DMSO-treated cells (control) were approximately 80–90% confluent at the assay’s endpoint, and their optical density (OD) values fell within the assay’s linear range. After overnight incubation, the cells were treated with a range of concentrations of the respective compounds for 96 h, 24 h followed by 72 h compound-free incubation or 24 h (for HUVECs only). After treatment, cell monolayers were fixed with 10% (w/v) trichloroacetic acid for 1 h at 4 °C, washed, and dried. Then, the cells were exposed to 0.4% (w/v) SRB dye (prepared in 1% (v/v) acetic acid; Botium, Cat# 80100) for 15 min followed by several 1% acetic acid washing and then drying. Finally, the cellular protein-bound SRB was thoroughly dissolved in 10 mM Tris base, and the OD values were read at 510 nm using a plate reader (μQuant Microplate Spectrophotometer, Biotek, U.K.) coupled with Gen5 software (BioTek, U.K.). Compound-induced changes in cell growth were inferred from changes in OD values. Cell growth was calculated using the following formula: cell growth (%) = (ODtest/ODcontrol) × 100.

MDA-MB-231 = assay: SRB antiproliferative assay, MDA-MB-231; format: cell-based, human; conditions: Homo sapiens, MDA-MB-231, 96 h treatment, mean ± SEM, read-out: IC50 MDA-MB-231
Procedure: (§3) In light of this substantial change in activity between the meta and para compounds, a more comprehensive analysis of the antiproliferative activity was performed for the meta-/para-3-arylisoquinolinone pairs 2 and 3, 4, and 5, as well as 6. A panel of breast (MDA-MB-231), liver (HepG2, SNU423), lung (A549), and colon (HCT116) cancer cell lines were treated with the five 3-arylisoquinolinone analogs for 96 h followed by the SRB assay. The dose–response curves (including those for MCF-7) are presented in Figure S22, and their relevant IC50 values are listed in Table 1. […] The differential activity between meta- and para-3-arylisoquinolinones was reproduced in the National Cancer Institute (NCI) one-dose screen using a panel of 59 cancer cell lines (Figure S23).
as §1, §2

A549 = assay: SRB antiproliferative assay, A549; format: cell-based, human; conditions: Homo sapiens, A549, 96 h treatment, mean ± SEM, read-out: IC50 A549
Procedure: as §3, §1, §2

HCT116 = assay: SRB antiproliferative assay, HCT116; format: cell-based, human; conditions: Homo sapiens, HCT-116, 96 h treatment, mean ± SEM, read-out: IC50 HCT116
Procedure: as §3, §1, §2

HUVECs [1] = assay: SRB assay of endothelial cell proliferation; format: cell-based; conditions: 24 h, up to 10 μM
Procedure: Compound 4 was further elucidated whether it blocked the formation of capillary-like tubes and disrupted the already existing tubes of HUVECs as a result of inducing endothelial cell death. Accordingly, the growth of HUVECs treated with 4 was investigated using the SRB assay. HUVECs were plated on 96-well plates without prior coating with Matrigel and then exposed to different concentrations of 4 for 24 h.
All cell lines used in the study were human-derived and purchased from ATCC (Manassas, USA). Breast adenocarcinoma MCF-7 and MDA-MB-231 cell lines were cultured in DMEM. Hepatocellular carcinoma HepG2 and SNU423 cell lines were grown in MEME combined with 1% (v/v) nonessential amino acids and RPMI supplemented with 2 mM glutamine, respectively. Lung adenocarcinoma A549 and colorectal carcinoma HCT116 cells were grown in RPMI (+2 mM glutamine). […]
Screening of the antiproliferative activity of 3-arylisoquinolinones was performed using the SRB assay as previously described.[56] […] Finally, the cellular protein-bound SRB was thoroughly dissolved in 10 mM Tris base, and the OD values were read at 510 nm using a plate reader (μQuant Microplate Spectrophotometer, Biotek, U.K.) coupled with Gen5 software (BioTek, U.K.). […] Cell growth was calculated using the following formula: cell growth (%) = (ODtest/ODcontrol) × 100.

HUVECs [2] = assay: Cytoskeleton immunofluorescence; format: cell-based, human; conditions: 0.5, 1 μM, 24 h
Text: The disruption was characterized by shortened microtubules with outer blebbing filled with tubulin and thicker and brighter actin fibers (stress fibers). Many rounded and retracted cells were also observed in HUVECs treated with 4. […] Taken together, 4 induced morphological alterations in endothelial cells are possibly the reason behind the disruption of the preexisting tubes of HUVECs cultured on Matrigel. […] Throughout the next steps, all of the reagents were removed by washing, flicking, and gently dabbing the slide against a tissue paper. The cells were then washed with PBS containing calcium and magnesium (Sigma, Cat# D1283), fixed with 10% formalin solution (Sigma, Cat# HT5014) for 15 min, and permeabilized with 0.2% (v/v) Triton X-100 for 5 min. Next, the cells were exposed to 1 h incubation with blocking buffer made of 10% (v/v) normal goat serum (Vector Laboratories, Cat# S-1000), 1% (w/v) bovine serum albumin (Sigma, Cat# A9418), and 0.3 M glycine in PBS-T (0.05% Tween-20 in PBS). The cells were then incubated with rabbit α-tubulin primary antibody (1:1000 in the blocking buffer, Abcam, Cat# ab52866) for 2 h at RT after three times washing with PBS-T, each for 5 min. […] Finally, the cytoskeleton was visualized at 63x, oil-based magnification using fluorescence, inverted microscope (Leica DMI6000B, Leica Microsystems). […]

Structure (SMILES)	IC50 (MCF-7)	IC50 (MDA-MB-231)	IC50 (A549)	IC50 (HCT116)	effect on proliferation of HUVECs (HUVECs [1])	effect on cytoskeleton network (actin and microtubules) (HUVECs [2])
O=c1[nH]c(-c2ccc(F)cc2)cc2cc(F)ccc12 [compound 5, 6-Fluoro-3-(4-fluorophenyl)isoquinolin-1(2H)-one]	> 50 µM	> 50 µM	> 50 µM	> 50 µM		
O=c1[nH]c(-c2cccc(F)c2)cc2cc(F)ccc12 [compound 4, 6-Fluoro-3-(3-fluorophenyl)isoquinolin-1(2H)-one]					not able to significantly diminish the proliferation of HUVECs	marked disruption in the cytoskeleton network
